Assay results taken from PubChem BioAssay AID1259407 (Chemical Carcinogenesis Research Information System (CCRIS), 2018).
Activity calls are given as the source filed them. How the calls were made is not given here.

System: CCRIS mutagenicity, Ames/micronucleus/aberration tests
Assay: CCRIS mutagenicity studies
Details: Test System: AMES SALMONELLA TYPHIMURIUM
[1] = Strain/Indicator: TA98, Metabolic Activation: RAT, LIVER, S-9, AROCLOR 1254, Method: STANDARD PLATE

Measured: mutagenic call

CC1(C)[C@@H]2CC[C@@]1(C)[C@@H](O)C2
inactive: Strain/Indicator: TA97, Metabolic Activation: NONE, Method: PREINCUBATION inactive; negative | Strain/Indicator: TA97, Metabolic Activation: NONE, Method: PREINCUBATION (20 MIN) inactive; negative | Strain/Indicator: TA97, Metabolic Activation: RAT, LIVER, S-9, AROCLOR 1254, Method: PREINCUBATION inactive; negative | Strain/Indicator: TA97, Metabolic Activation: S-9, Method: PREINCUBATION (20 MIN) inactive; negative | Strain/Indicator: TA98, Metabolic Activation: NONE, Method: PREINCUBATION (20 MIN) inactive; negative | Strain/Indicator: TA98, Metabolic Activation: S-9, Method: PREINCUBATION (20 MIN) inactive; negative | Strain/Indicator: TA100, Metabolic Activation: NONE, Method: PREINCUBATION (20 MIN) inactive; negative | Strain/Indicator: TA100, Metabolic Activation: S-9, Method: PREINCUBATION (20 MIN) inactive; negative | Strain/Indicator: TA102, Metabolic Activation: NONE, Method: PREINCUBATION inactive; negative | Strain/Indicator: TA102, Metabolic Activation: RAT, LIVER, S-9, AROCLOR 1254, Method: PREINCUBATION inactive; negative

Cc1nc2c(C)c(C)c3c(nc(N)n3C)c2nc1C
active: [1] active; positive

O=C(OCc1ccc(Cl)cc1)c1cccc2cccnc12
inactive: Strain/Indicator: TA98, Metabolic Activation: NONE, Method: STANDARD PLATE inactive; negative | [1] inactive; negative | Strain/Indicator: TA100, Metabolic Activation: NONE, Method: STANDARD PLATE inactive; negative | Strain/Indicator: TA100, Metabolic Activation: RAT, LIVER, S-9, AROCLOR 1254, Method: STANDARD PLATE inactive; negative | Strain/Indicator: TA1535, Metabolic Activation: NONE, Method: STANDARD PLATE inactive; negative | Strain/Indicator: TA1535, Metabolic Activation: RAT, LIVER, S-9, AROCLOR 1254, Method: STANDARD PLATE inactive; negative | Strain/Indicator: TA1537, Metabolic Activation: NONE, Method: STANDARD PLATE inactive; negative | Strain/Indicator: TA1537, Metabolic Activation: RAT, LIVER, S-9, AROCLOR 1254, Method: STANDARD PLATE inactive; negative
